Measurements reported in the NIST ThermoML archive (doi:10.1021/je020065c).
± gives the expanded uncertainty stated by the source.

Experiments:
[1] = 303.1 K; 101.33 kPa; Liquid; pycnometer
[2] = Boiling temperature at pressure P; conditions: 101.3 kPa; Liquid; ebulliometry
[3] = excess molar enthalpy (molar enthalpy of mixing); xn = mol fraction of the nth substance listed; conditions: 298.15 K, 101.3 kPa, Liquid

CC(Cl)(Cl)Cl [1,1,1-trichloroethane]
Conditions | Boiling temperature at pressure P [°C] | mass density [kg/m3]
[1] | – | 1320.94 ± 0.88
[2] | 74.20 ± 0.5 | –

CC(Cl)(Cl)Cl [1,1,1-trichloroethane] + CN1CCCC1=O
[3]
Conditions | excess molar enthalpy [kJ/mol]
x1 = 0.0303 | -0.0605 ± 0.005
x1 = 0.0662 | -0.135 ± 0.0073
x1 = 0.1039 | -0.208 ± 0.0097
x1 = 0.1525 | -0.294 ± 0.013
x1 = 0.2006 | -0.374 ± 0.015
x1 = 0.2534 | -0.443 ± 0.018
x1 = 0.3046 | -0.509 ± 0.02
x1 = 0.3555 | -0.555 ± 0.022
x1 = 0.4018 | -0.582 ± 0.022
x1 = 0.4556 | -0.583 ± 0.023
x1 = 0.5054 | -0.582 ± 0.022
x1 = 0.5576 | -0.571 ± 0.022
x1 = 0.6104 | -0.59 ± 0.023
x1 = 0.6634 | -0.588 ± 0.023
x1 = 0.7153 | -0.564 ± 0.022
x1 = 0.7694 | -0.51 ± 0.02
x1 = 0.8172 | -0.49 ± 0.019
x1 = 0.8714 | -0.433 ± 0.017
x1 = 0.9228 | -0.328 ± 0.014
x1 = 0.9649 | -0.183 ± 0.0088

ClC(Cl)=C(Cl)Cl [tetrachloroethene] + CN1CCCC1=O
[3]
Conditions | excess molar enthalpy [kJ/mol]
x1 = 0.039 | -0.01 ± 0.0034
x1 = 0.0887 | -0.0122 ± 0.0035
x1 = 0.1357 | -0.005 ± 0.0033
x1 = 0.2415 | 0.0293 ± 0.004
x1 = 0.2932 | 0.0574 ± 0.0049
x1 = 0.3454 | 0.0895 ± 0.0059
x1 = 0.536 | 0.261 ± 0.011
x1 = 0.6006 | 0.297 ± 0.013
x1 = 0.6688 | 0.336 ± 0.014
x1 = 0.742 | 0.324 ± 0.014
x1 = 0.813 | 0.295 ± 0.013
x1 = 0.8822 | 0.237 ± 0.011
x1 = 0.9441 | 0.143 ± 0.0075

ClCCCl [1,2-dichloroethane] + CN1CCCC1=O
[3]
Conditions | excess molar enthalpy [kJ/mol]
x1 = 0.0658 | -0.236 ± 0.011
x1 = 0.1316 | -0.459 ± 0.018
x1 = 0.1959 | -0.665 ± 0.025
x1 = 0.2633 | -0.859 ± 0.032
x1 = 0.331 | -1.04 ± 0.038
x1 = 0.3947 | -1.18 ± 0.043
x1 = 0.4525 | -1.26 ± 0.046
x1 = 0.592 | -1.12 ± 0.041
x1 = 0.6421 | -1.03 ± 0.038
x1 = 0.6925 | -0.908 ± 0.034
x1 = 0.7469 | -0.812 ± 0.03
x1 = 0.8024 | -0.678 ± 0.026
x1 = 0.856 | -0.514 ± 0.02
x1 = 0.9111 | -0.336 ± 0.014
x1 = 0.9608 | -0.169 ± 0.0083

ClC(Cl)=C(Cl)Cl [tetrachloroethene]
Conditions | Boiling temperature at pressure P [°C] | mass density [kg/m3]
[1] | – | 1606.4 ± 1.1
[2] | 121.00 ± 0.5 | –

CN1CCCC1=O [N-methylpyrrolidone]
Conditions | Boiling temperature at pressure P [°C] | mass density [kg/m3]
[1] | – | 1023.4 ± 0.7
[2] | 202.30 ± 0.5 | –

ClCCCl [1,2-dichloroethane]
Conditions | Boiling temperature at pressure P [°C] | mass density [kg/m3]
[1] | – | 1238.3 ± 0.8
[2] | 83.80 ± 0.5 | –

ClC(Cl)C(Cl)Cl [1,1,2,2-tetrachloroethane]
Conditions | Boiling temperature at pressure P [°C] | mass density [kg/m3]
[1] | – | 1578.58 ± 1.1
[2] | 146.20 ± 0.5 | –

ClC(Cl)C(Cl)Cl [1,1,2,2-tetrachloroethane] + CN1CCCC1=O
[3]
Conditions | excess molar enthalpy [kJ/mol]
x1 = 0.0331 | -0.474 ± 0.019
x1 = 0.0582 | -0.86 ± 0.032
x1 = 0.0765 | -1.07 ± 0.04
x1 = 0.1279 | -1.78 ± 0.064
x1 = 0.1292 | -1.73 ± 0.062
x1 = 0.1796 | -2.32 ± 0.083
x1 = 0.2318 | -2.94 ± 0.1
x1 = 0.2344 | -2.91 ± 0.1
x1 = 0.288 | -3.51 ± 0.12
x1 = 0.3219 | -3.74 ± 0.13
x1 = 0.34 | -4.03 ± 0.14
x1 = 0.4028 | -4.23 ± 0.15
x1 = 0.4675 | -4.57 ± 0.16
x1 = 0.5226 | -4.75 ± 0.17
x1 = 0.5688 | -4.84 ± 0.17
x1 = 0.5953 | -4.85 ± 0.17
x1 = 0.6265 | -4.55 ± 0.16
x1 = 0.6815 | -4.19 ± 0.15
x1 = 0.7384 | -3.72 ± 0.13
x1 = 0.7933 | -3.1 ± 0.11
x1 = 0.8536 | -2.23 ± 0.08
x1 = 0.9099 | -1.48 ± 0.054
x1 = 0.9574 | -0.75 ± 0.028

ClC=C(Cl)Cl [trichloroethene]
Conditions | Boiling temperature at pressure P [°C] | mass density [kg/m3]
[1] | – | 1451.2 ± 1
[2] | 87.10 ± 0.5 | –

ClC=C(Cl)Cl [trichloroethene] + CN1CCCC1=O
[3]
Conditions | excess molar enthalpy [kJ/mol]
x1 = 0.0381 | -0.19 ± 0.009
x1 = 0.0886 | -0.443 ± 0.018
x1 = 0.1426 | -0.663 ± 0.025
x1 = 0.2005 | -0.903 ± 0.034
x1 = 0.2675 | -1.15 ± 0.042
x1 = 0.3373 | -1.43 ± 0.052
x1 = 0.4001 | -1.65 ± 0.059
x1 = 0.6547 | -1.43 ± 0.052
x1 = 0.7095 | -1.32 ± 0.048
x1 = 0.7643 | -1.17 ± 0.043
x1 = 0.8186 | -0.963 ± 0.036
x1 = 0.873 | -0.735 ± 0.028
x1 = 0.9254 | -0.469 ± 0.019
x1 = 0.9678 | -0.211 ± 0.0098
